Experimental findings from US4069337A, “2-Substituted-indole-1-lower-alkanecarboxamides having anti-secretory or anti-ulcer activity” (Sterling Drug Inc., priority 1976, dated 1978) are described below.

Assay [1] relates to secretion of gastric fluids. Description: anti-secretory activity in pylorus-ligated rats (method of Shay et al.). The assay is classed as in vivo, male albino Wistar rats. On the procedure:
In standard biological test procedures, described generally by Shay et al., Gastroenterology 5, 43 (1945) and 26, 906 (1954) and by Selmici et al., Acta Physiol. Acad. Sci. Hung. […] Anti-secretory activity was determined in male albino Wistar rats weighing approximately 180 g. using the method described by Shay et al. which is described as follows: the rats were divided into medicated groups of at least five rats each and control groups of ten rats. The rats were medicated orally once daily for 2 days prior to stomach ligation and once again immediately following ligation. All drugs were administered as the free base, and control rats received only the vehicle of medication. The rats were housed individually in wire cages, food was withdrawn 48 hours prior to surgery, and water was withdrawn at the time of surgery. Laparotomy was performed under light ether anesthesia, the pyloric-duodenal junction was ligated, and the wound was closed with metal clips and sprayed with a protective surgical dressing. Five hours following surgery, the rats were sacrificed, the stomach was removed, and the gastric juice collected. The gastric fluid was centrifuged, the total volume, color, and volume of solids were recorded. The pH of the gastric fluid was then determined on a Beckman pH meter, and the "free" and "total" hydrochloric acid content of each gastric sample was determined by titrating an aliquot of the gastric fluid (diluted to approximately 10 ml. with distilled water) by titrating with 0.1N sodium hydroxide against Toepfers reagent and phenolphthalein, respectively. By determining the milliequivalents of hydrochloric acid per milliliter of gastric juice and knowing the total volume of gastric juice secreted by each rat, the total acid output can be calculated. Since pH is a function of "free" acid, the activity of the test compounds can be evaluated by comparison of the mean "free" acid of medicated rats with the mean "free" acid of the controls, and the activity can thus be expressed in terms of percent inhibition of free acid.
(§1) Data obtained on administration of the compounds of formula I in rats in the anti-secretory and anti-ulcer tests described above are given in the table below. Unless noted otherwise, data were obtained on oral administration. Results in the anti-secretory activity tests are given in terms of the pH of the gastric fluid in the test animals and the percent inhibition of free acid, while results in the anti-ulcer test are given either in terms of the percent inhibition of ulcers or as a ratio representing the number of animals with ulcers (as the numerator) to the total number of animals in the test group (as the denominator). All doses are expressed in mg./kg.

In assay [2] the test system is reserpine-induced stomach ulceration. Description: anti-ulcer activity, reserpine-induced ulcer test (method of Selmici et al.). The assay is classed as in vivo, male, albino, Sprague-Dawley rats. As to conditions: oral; for inhibition in vivo at 100 mg/kg / Anti-Ulcer: ratio of number of animals with ulcers to total number of animals in the test group: 100 mg./kg. On the procedure: The anti-ulcer activity of the compounds was determined using the reserpine-induced anti-ulcer test method, described by Selmici et al., which is described briefly as follows: male, albino, Sprague-Dawley rats, weighing approximately 300 g., were divided into medicated and control groups of at least five rats each, and one positive control group of five rats medicated with a known drug at the active dose was run with each experiment. The rats were medicated forty-eight, twenty-four, and one hour before receiving an injection of reserpine. All test drugs were administered orally in terms of base, and the control rats received only the vehicle of medication. The rats were housed individually in wire cages, and food was withdrawn 24 hours prior to injection of reserpine, while water was allowed ad libitum. One hour following the third medication, 5.0 mg. of reserpine per kilogram of body weight in a concentration of 5 mg./ml. was injected intramuscularly in each rat. Eighteen hours after injection the rats were sacrificed, their stomachs removed, opened along the greater curvature, rinsed in warm saline, and pinned to a cork board for gross observation. The stomachs were examined for the number and size of ulcerations located in the glandular portion of the stomach with the aid of a one millimeter grid ocular with a 10x dissecting microscope. The degree of ulceration was arbitrarily graded according to the number and size of the ulcers as follows:
The points were added together and divided by the number of rats in each group to give an ulcer score, and the difference in the mean scores of the medicated and control group was expressed as percent inhibition of ulceration. Alternatively, the results can be expressed as a ratio of the total number of rats with any degree of ulceration (as the numerator) to the total number of rats in the test group (as the denominator).
as §1

Where [3] appears, read: Rattus norvegicus, po, 5 h, oral, 25 mg./kg., read-out: % Inhibition of Free Acid.
Where [4] appears, read: Rattus norvegicus, po, 5 h, oral, 100 mg./kg., read-out: % Inhibition of Free Acid.
Setting [5] is: Rattus norvegicus, sc, 5 h, s.c., 100 mg./kg., read-out: % Inhibition of Free Acid.
Setting [6] is: Rattus norvegicus, intraduodenal, 5 h, i.d., 100 mg./kg., read-out: % Inhibition of Free Acid.
Where [7] appears, read: Rattus norvegicus, ip, 5 h, i.p., 100 mg./kg., read-out: % Inhibition of Free Acid.
Setting [8] is: Rattus norvegicus, 5 h, oral, 100 mg./kg., read-out: % Inhibition of Free Acid.

Read-outs that look alike come from different tables or passages of the source.

Take `Cc1c(C)n(CC(N)=O)c2ccccc12` [Example 1A, 2,3-dimethyl-1-indoleacetamide]: the inhibition in vivo at 25 mg/kg in assay [1] (setting [3]) came out at 69%. Besides, the inhibition in vivo at 50 mg/kg in assay [1] (Rattus norvegicus, po, 5 h, oral, 50 mg./kg., read-out: % Inhibition of Free Acid) is 65%. The inhibition in vivo at 100 mg/kg in assay [1] (setting [4]) is 100%. Besides, in assay [1] (Rattus norvegicus, po, 5 h, oral, 200 mg./kg., read-out: % Inhibition of Free Acid), the inhibition in vivo at 200 mg/kg turned out to be 100%. In assay [1] (oral, 25 mg./kg.), the “pH of the gastric fluid” value is listed as 2.6. Besides, in assay [1] (oral, 50 mg./kg.), the “pH of the gastric fluid” value was 3.0. Further, the “pH of the gastric fluid” value in assay [1] (oral, 100 mg./kg.) came out at 6.0. Moreover, in assay [1] (oral, 200 mg./kg.), the “pH of the gastric fluid” value is given as 6.7. In assay [2] (Rattus norvegicus, 18 h), the inhibition in vivo at 0.8 mg/kg stood at 0%, the inhibition in vivo at 1.56 mg/kg was 38%, the inhibition in vivo at 6.25 mg/kg came to 75% and the inhibition in vivo at 12.5 mg/kg is 81%. In assay [2] (Rattus norvegicus, 18 h), this molecule displayed an inhibition in vivo at 25 mg/kg of 95%, an inhibition in vivo at 50 mg/kg of 98% and an inhibition in vivo at 100 mg/kg of 99%. The same molecule gave an inhibition in vivo at 3.12 mg/kg in assay [2] (Rattus norvegicus, 18 h, 3.12 mg./kg.) of 45%.
Consider `NC(=O)CCn1c(-c2ccccc2)c(CO)c2ccccc21` [Example 8D, β-(2-Phenyl-3-hydroxymethyl-1-indole)propionamide], for which the inhibition in vivo at 100 mg/kg in assay [1] (setting [4]) came to 28%; in assay [1] (setting [5]) it was 38%. Further, the “pH of the gastric fluid” value in assay [1] (oral, 100 mg./kg.) came to 1.5; in assay [1] (s.c., 100 mg./kg.) it was 1.4. In addition, the “Anti-Ulcer: ratio of number of animals with ulcers to total number of animals in the test group” value (“Anti-Ulcer: ratio of number of animals” for short) in assay [2] is reported as 0/5.
For the molecule `Cc1c(CO)c2ccccc2n1CCC(N)=O` [Example 8A, β-(2-methyl-3-hydroxymethyl-1-indole)propionamide], the inhibition in vivo at 100 mg/kg was 100% in assay [1] (setting [6]); 100% in assay [1] (setting [7]); 69% in assay [1] (setting [4]); 100% in assay [1] (setting [5]); 56% in assay [2] (Rattus norvegicus, 18 h). The “pH of the gastric fluid” value in assay [1] (i.d., 100 mg./kg.) is 5.6; in assay [1] (i.p., 100 mg./kg.), 7.0; in assay [1] (oral, 100 mg./kg.), 1.9; in assay [1] (s.c., 100 mg./kg.), 6.7.
For the molecule `Cc1c(C)n(CCCC(N)=O)c2ccccc12` [Example 1D, γ-(2,3-Dimethyl-1-indole)butyramide], the inhibition in vivo at 6.25 mg/kg in assay [1] (Rattus norvegicus, po, 5 h, oral, 6.25 mg./kg., read-out: % Inhibition of Free Acid) stood at 14%; in assay [2] (Rattus norvegicus, 18 h), 0%. The inhibition in vivo at 25 mg/kg in assay [1] (setting [3]) came to 38%; in assay [2] (Rattus norvegicus, 18 h), 72%. Further, the inhibition in vivo at 100 mg/kg in assay [1] (setting [4]) was found to be 100%; in assay [2] (Rattus norvegicus, 18 h), 99%. In addition, the “pH of the gastric fluid” value in assay [1] (oral, 6.25 mg./kg.) stood at 1.3; in assay [1] (oral, 25 mg./kg.), 1.6; in assay [1] (oral, 100 mg./kg.), 6.2. The inhibition in vivo at 0.8 mg/kg in assay [2] (Rattus norvegicus, 18 h) was 38%. This molecule also returned an inhibition in vivo at 1.56 mg/kg in assay [2] (Rattus norvegicus, 18 h) of 38%.
For `Cc1c(CO)c2ccccc2n1CCCC(N)=O` [Example 8B, γ-(2-Methyl-3-hydroxymethyl-1-indole)butyramide], the inhibition in vivo at 100 mg/kg in assay [1] (setting [6]) is 5%; in assay [1] (setting [7]) it was 62%; in assay [1] (setting [4]), 5%; in assay [1] (setting [5]), 12%; in assay [2] (Rattus norvegicus, 18 h), 0%. The “pH of the gastric fluid” value amounted to 1.2 in assay [1] (i.d., 100 mg./kg.); 2.4 in assay [1] (i.p., 100 mg./kg.); 1.3 in assay [1] (oral, 100 mg./kg.); 1.2 in assay [1] (s.c., 100 mg./kg.).
In the case of `CCc1c(C)n(CCC(N)=O)c2ccccc12` [Example 4E, β-(2-Methyl-3-ethyl-1-indole)propionamide], in assay [1] (setting [4]), the inhibition in vivo at 100 mg/kg worked out at 42%. Also, the “pH of the gastric fluid” value in assay [1] (oral, 100 mg./kg.) is given as 3.4. In assay [2] (Rattus norvegicus, 18 h), the inhibition in vivo at 6.25 mg/kg turned out to be 60%, the inhibition in vivo at 12.5 mg/kg worked out at 72%, the inhibition in vivo at 25 mg/kg was 80% and the inhibition in vivo at 50 mg/kg came to 94%. In assay [2] (Rattus norvegicus, 18 h), this molecule came in with an inhibition in vivo at 100 mg/kg of 93%.
Take `Cc1c(C)n(CC(C)C(N)=O)c2ccccc12` (stereo not drawn) [Example 4H, β-(2,3-Dimethyl-1-indole) -α-methylpropionamide]: the inhibition in vivo at 100 mg/kg in assay [1] (setting [4]) came to 100%; in assay [2] (Rattus norvegicus, 18 h), 89%. The “pH of the gastric fluid” value in assay [1] (oral, 100 mg./kg.) was 5.7.
Turning to `Cc1c(C)n(CCC(=O)N(C)C)c2ccccc12` [Example 2, β-(2,3-dimethyl-1-indole)-N,N-dimethylpropionamide], the inhibition in vivo at 100 mg/kg in assay [1] (setting [4]) came to 93%. Also, the “pH of the gastric fluid” value in assay [1] (oral, 100 mg./kg.) was 4.4. For the same molecule, in assay [2] (Rattus norvegicus, 18 h), the inhibition in vivo at 25 mg/kg was 34%.
On to `Cc1c(C=O)c2ccccc2n1CC(N)=O` [Example 6, 2-methyl-3-formyl-1-indoleacetamide], for which the inhibition in vivo at 100 mg/kg in assay [1] (setting [8]) worked out at 0%; in assay [2] (Rattus norvegicus, 18 h), 0%. In addition, the “pH of the gastric fluid” value in assay [1] (oral, 100 mg./kg.) turned out to be 1.1.
As for `Cc1c(-c2ccccc2)n(CCC(N)=O)c2ccccc12` [Example 4M, β-(2-Phenyl-3-methyl-1-indole)propionamide], the inhibition in vivo at 100 mg/kg in assay [1] (setting [6]) is 34%; in assay [1] (setting [7]), 43%; in assay [1] (setting [4]) it was 20%. Further, the “pH of the gastric fluid” value in assay [1] (i.d., 100 mg./kg.) is listed as 1.2; in assay [1] (i.p., 100 mg./kg.), 1.7; in assay [1] (oral, 100 mg./kg.), 1.1. The “Anti-Ulcer: ratio of number of animals” value in assay [2] was 0/5.
On to `Cc1c(C)n(CCC(N)=O)c2ccc(Cl)cc12` [Example 4B, β-(2,3-Dimethyl-5-chloro-1-indole)propionamide], for which the inhibition in vivo at 100 mg/kg in assay [1] (setting [4]) was 88%. In addition, the “pH of the gastric fluid” value in assay [1] (oral, 100 mg./kg.) stood at 3.6. The inhibition in vivo at 25 mg/kg in assay [2] (Rattus norvegicus, 18 h) was 95%.
As to `Cc1c(C=O)c2cc(F)ccc2n1CCC(N)=O` [Example 4G, β-(2-Methyl-3-formyl-5-fluoro-1-indole)propionamide], the inhibition in vivo at 100 mg/kg was 17% in assay [1] (setting [8]) and 36% in assay [1] (setting [5]). Moreover, the “pH of the gastric fluid” value in assay [1] (oral, 100 mg./kg.) is given as 1.1; in assay [1] (s.c., 100 mg./kg.), 1.2. Also, in assay [2], the “Anti-Ulcer: ratio of number of animals” value is recorded as 5/5.
As to `CCc1c(C)c2ccccc2n1CCC(N)=O` [Example 4D, β-(2-Ethyl-3-methyl-1-indole)propionamide], the inhibition in vivo at 100 mg/kg was 88% in assay [1] (setting [4]) and 97% in assay [2] (Rattus norvegicus, 18 h). In assay [1] (oral, 100 mg./kg.), the “pH of the gastric fluid” value is 4.1.
Regarding `Cc1c(C(=O)C(F)(F)F)c2ccccc2n1CCC(N)=O` [Example 4L, β-(2-Methyl-3-trifluoroacetyl-1-indole)propionamide], the results for the inhibition in vivo at 100 mg/kg in assay [1] (setting [8]), in assay [1] (setting [6]) and in assay [1] (setting [7]) were 46%, 65% and 78%, respectively. Further, the “pH of the gastric fluid” value is on record as 2.5 in assay [1] (i.d., 100 mg./kg.); 3.8 in assay [1] (i.p., 100 mg./kg.); 1.8 in assay [1] (oral, 100 mg./kg.).
